Reference: patent US4092420A, “Novel soft N-chloroamino alcohol derivatives exhibiting antibacterial activity” (INTERx Research Corporation, priority 1977, dated 1978)
Values after ≈ are worked out from the molar mass of the structure shown.

What was measured:
K. pneumoniae [1] = assay: Minimal inhibitory concentration (MIC), Example V; type: cell-based; conditions: Klebsiella pneumoniae
Description: (§1) MINIMAL INHIBITORY CONCENTRATION OF 2-AMINO-2-METHYL-1-PROPYL
(§2) ^a Minimal inhibitory concentration expressed in parts per million
(§3) sequence inhibited the test organism at the higher concentrations.
(§4) THE ANTIBACTERIAL SCREEN - EXAMPLE V
Klebsiella pneumoniae ATCC# 10031
(§5) THE ANTIBACTERIAL SCREEN - EXAMPLES W - Z (Autotiter IV)
(§6) (a) Compounds. All compounds to be screened are weighed (approx. 10 mg) on the day preceding the test date. Each compound is solubilized on the day of assay in appropriate solvent and diluted automatically in the Autotiter IV with distilled water (buffer can be employed here also).
(§7) Bacteria: Staphylococcus aureas Smith (or 209), Escherichia coli AB 1932-1, 1100/B22 and Vogel, Streptococcus pyogenes C203 Salmonella typhimurium 14028, Bacillus subtilis 6051-1, Klebsiella pneumoniae 10031, Pseudomonas aeruginosa 9027, Bordetella bronchiseptica 4617 and Staphylococcus epidermidis 12228.
(§8) (c) Inocula. Prior to utilization in the Autotiter IV, all bacteria are cultured for 18-20 hr. (37° C) in tryptose phosphate broth (TP), except, S. pyogenes C203, which is cultured in Brain Heart Infusion broth plus 10% normal horse serum. Immediately prior to testing, each culture is adjusted to an optical density of 0.10 (650 nm), employing a Bausch & Lomb Spectronic 20, and diluted subsequently into double strength medium to approximately 2 × 10^5 viable organisms per ml.
(§9) 1. An automated injector system dispenses 0.05 ml of diluent (sterile H2 O or buffer) to all cups of the autotiter trays from rows 2 through 7.
(§10) 2. The loops (for sequential dilutions of the compounds are moistened by immersion into 70% ethyl alcohol. After removal of excess alcohol by blotting, the loops are moved to the first row of cups in the autotray containing 0.10 ml of the compound to be diluted and tested (usually, this initial concentration is 500 to 1000 mcg/ml, but can be varied upward or downward). The loops are lowered and sequentially transfer the diluted solutions of the compound through row 7.
(§11) Immediately after each dilution is made, each cup is automatically inoculated with 0.05 ml of the appropriate test organism. This inoculation derives from a second injector system containing the organism in double-strength medium. The total operation consists of the automatic dilution of a single compound in each of 8 rows of the Autotiter try.
(§12) After these operations, we reverse the tray and a second compound is diluted over the other one-half of the tray and inoculated, subsequently, with 8 organisms. Thus, for each Autotiter Tray, two compounds are screened against 8 different organisms at dilutions ranging from 1:2 to 1:128.
(§13) (e) Incubation. The inoculated Autotiter trays are incubated at 37° C for 18 - 20 hr. At the end of this period, each tray is examined for the presence or absence of growth (turbidity). The lowest concentration of the compound inhibiting growth is recorded as the minimal inhibitory concentration (MIC).

S. pyogenes = assay: Minimal inhibitory concentration (MIC), Example V; type: cell-based; conditions: Streptococcus pyogenes
S. aureus = assay: Minimal inhibitory concentration (MIC), Example V; type: cell-based; conditions: Staphylococcus aureus
Description: as §4, §5, §6, §7, §8, §9, §10, §11, §12, §13

P. aeruginosa [2] = assay: Minimal inhibitory concentration (MIC), Example V; type: cell-based; conditions: Pseudomonas aeruginosa
Description: as §4, §5, §6, §7, §8, §9, §10, §11, §12, §13

C. albicans = assay: Minimal inhibitory concentration (MIC), Example V; type: cell-based; conditions: Candida albicans
Source text: MINIMAL INHIBITORY CONCENTRATION OF 2-AMINO-2-METHYL-1-PROPYL […]
as §4

T. mentagrophytes = assay: Minimal inhibitory concentration (MIC), Example V; type: cell-based; conditions: Trichophyton mentagrophytes
Source text: as §1, §2, §3, §4

E. coli = assay: Minimal inhibitory concentration (MIC), Example V; type: cell-based; conditions: Escherichia coli
Source text: as §1, §2, §3, §4

A. niger = assay: Minimal inhibitory concentration (MIC), Example V; type: cell-based; conditions: Aspergillus niger
Source text: as §1, §2, §3, §4

B. bronchiseptica = assay: Contact germicidal efficiency (sterilization time); type: cell-based, Bordetella bronchiseptica
Description: (§14) CONTACT GERMICIDAL EFFICIENCY OF N-CHLORAMINES AS A FUNCTION
(§15) ^a Time intervals screened 0.5, 1, 2, 3, 4 and 5 minutes.
(§16) ^a Time intervals screened 0.5, 1, 2, 3, 4, 5, 6, 7, 8, 9 and 10
(§17) ^a Time intervals screened 0.5, 1, 2, 3, 4, and 5 minutes.
(§18) ^b Time intervals screened 0.5, 1, 2, 3, 4, 5, 6, 7, 8, 9 and 10
(§19) Immediately preceding the screen, the compound is weighed and diluted with a buffer or other solvent to give the final concentration desired. The buffer or solvent chosen depends on the conditions of the screen and could be one of the following: 0.1 M NaOAc, pH 4.6; 0.1 M NaH2 PO4, pH 7.0; 0.1 M Na2 B4 O7, pH 8.8; 35% methanol in one of the aforementioned buffers; 10% Triton × 100 in buffer, etc.
(§20) The positive chlorine concentration of the test solution is then determined iodometrically.
(§21) Media used for the Screen are Nutrient Broth, BBL# 11479 and Nutrient Agar, BBL# 11472 prepared according to label directions. The broth is dispensed in 75 ml amounts of flasks for overnight cultures and in 5 ml amounts to culture tubes for subculturing during the Screen. Agar plates are prepared as usual.
(§22) Overnight cultures are prepared by inoculating from stock cultures into the 75 ml flasks of nutrient broth and incubating for 15 hours at 37° C.
(§23) The iodometrically characterized test solution is dispensed in 5 ml amounts to seven small stoppered flasks. The organisms are screened one at a time as follows:
(§24) A 0.2 ml portion of the overnight culture is inoculated into 5 ml of 0.9% NaCl for use in controls. A 0.2 ml portion of the overnight culture is inoculated into a flask containing 5 ml of the test solution, an automatic timer is simultaneously triggered and the solution mixed. At time intervals of 30 seconds, 1, 2, 3, 4, 5, 6, 7, 8, 9, and 10 minutes a loopful of the inoculated solution is subcultured into 5 ml of sterile nutrient broth and mixed by a Vortex Genie Mixer, the high dilution serving to stop the action of the compound. At the end of the ten minute screen, the entire procedure is repeated for each of the remaining six organisms. All of the subculture tubes are incubated at 37° C and checked for signs of growth by turbidity at 24 hr., 48 hr., 3, 5, and 7 days. The earliest subculture time at which no growth is present in the subculture tube is considered the endpoint and is recorded as that time, e.g., 7 minutes.
(§25) The test solution is prepared and characterized as above but is made up at twice the concentration desired. The solution is diluted 1:1 with Rehydrated Tissue Culture Dessicated Horse Serum, Difco #5357-72 and dispensed in a 5 ml amount to a small flask. The mixture is incubated at Room Temperature for 30 minutes to allow denaturation of the compound by the serum and then screened as above.
(§26) The 5 ml mixture of serum and test solution are prepared in sequence to allow as close to 30 minutes as possible before the beginning of the screen of each organism.
as §7

S. epidermidis = assay: Contact germicidal efficiency (sterilization time); type: cell-based, Staphylococcus epidermidis
Description: as §14, §15, §16, §17, §18, §19, §20, §21, §22, §23, §24, §25, §26, §7

K. pneumoniae [3] = assay: Contact germicidal efficiency (sterilization time); type: cell-based, Klebsiella pneumoniae
Description: as §14, §15, §16, §17, §18, §19, §20, §21, §22, §23, §24, §25, §26, §7

P. aeruginosa [4] = assay: Contact germicidal efficiency (sterilization time); type: cell-based, Pseudomonas aeruginosa
Description: as §14, §15, §16, §17, §18, §19, §20, §21, §22, §23, §24, §25, §26, §7

[5] = Example X, pH 4.6, no horse serum, IV c 404 ppm (69 PPMCl+), IV g 489 ppm (143 PPMCl+)
[6] = Example X, pH 7.0, no horse serum, IV c 1886 ppm (323 PPMCl+), IV g 409 ppm (120 PPMCl+)
[7] = Example X, pH 9.3, no horse serum, IV c 1704 ppm (292 PPMCl+), IV g 319 ppm (94 PPMCl+)
[8] = Example Z, pH 4.6, absence of horse serum, IV j 79 ppm (21 PPMCl+), IV k 5800 (1057), IV l 1112 (209)
[9] = Example Z, S. pidermidis, pH 4.6, absence of horse serum, IV j 79 ppm (21 PPMCl+), IV k 5800 (1057), IV l 1112 (209)

Row | SMILES | MIC (K. pneumoniae [1]) | MIC (S. pyogenes) | MIC (S. aureus) | MIC (P. aeruginosa [2]) | MIC (C. albicans) | MIC (T. mentagrophytes) | MIC (E. coli) | MIC (A. niger) | other results
1 | CC(=O)OCC(C)(C)N(Cl)Cl [IV a, 2-N,N-Dichloroamino-2-methyl-1-propyl acetate] | > 62.5 µg/mL | 62.5 µg/mL | > 62.5 µg/mL | 62.5 µg/mL | > 62.5 µg/mL | 62.5 µg/mL | > 62.5 µg/mL | > 62.5 µg/mL | 
2 | CCCC(=O)OCC(C)(C)NCl [IV b, 2-N-Chloroamino-2-methyl-1-propyl butyrate] | > 62.5 µg/mL | > 62.5 µg/mL | > 62.5 µg/mL | > 62.5 µg/mL | > 62.5 µg/mL | > 62.5 µg/mL | > 62.5 µg/mL | > 62.5 µg/mL | 
3 | CCCCCC(=O)OCC(C)(C)NCl [IV d, 2-N-Chloroamino-2-methyl-1-propyl hexanoate] | > 62.5 µg/mL | > 62.5 µg/mL | > 62.5 µg/mL | > 62.5 µg/mL | > 62.5 µg/mL | > 62.5 µg/mL | > 62.5 µg/mL | > 62.5 µg/mL | 
4 | CCCCCCCC(=O)OCC(C)(C)NCl [IV e, 2-N-Chloroamino-2-methyl-1-propyl octanoate] | > 62.5 µg/mL | > 62.5 µg/mL | > 62.5 µg/mL | > 62.5 µg/mL | > 62.5 µg/mL | > 62.5 µg/mL | > 62.5 µg/mL | > 62.5 µg/mL | 
5 | CCCC(=O)OCC(C)(C)N(Cl)Cl [IV f, 2-N,N-Dichloroamino-2-methyl-1-propyl butyrate] | > 62.5 µg/mL | 62.5 µg/mL (≈ 274 µM) | > 62.5 µg/mL | 62.5 µg/mL (≈ 274 µM) | > 62.5 µg/mL | > 62.5 µg/mL | > 62.5 µg/mL | > 62.5 µg/mL | 
6 | CC(C)(C)C(=O)OCC(C)(C)N(Cl)Cl [IV g, 2-N,N-Dichloroamino-2-methyl-1-propyl 2,2-dimethylproprionate] | > 125 µg/mL | 250 µg/mL (≈ 1030 µM) | 250 µg/mL (≈ 1030 µM) | 250 µg/mL (≈ 1030 µM) | > 125 µg/mL | > 125 µg/mL | > 125 µg/mL | > 125 µg/mL | Sterilization Time (B. bronchiseptica; [5]): 1 min; Sterilization Time (B. bronchiseptica; [6]): 2 min; Sterilization Time (B. bronchiseptica; [7]): 2 min; Sterilization Time (S. epidermidis; Example X, S. epidermidis, pH 4.6, no horse serum, IV c 404 ppm (69 PPMCl+), IV g 489 ppm (143 PPMCl+)): 0.5 min; Sterilization Time (S. epidermidis; Example X, S. epidermidis, pH 7.0, no horse serum, IV c 1886 ppm (323 PPMCl+), IV g 409 ppm (120 PPMCl+)): 2 min; Sterilization Time (S. epidermidis; Example X, S. epidermidis, pH 9.3, no horse serum, IV c 1704 ppm (292 PPMCl+), IV g 319 ppm (94 PPMCl+)): 2 min; Sterilization Time (K. pneumoniae [3]; [5]): 0.5 min; Sterilization Time (K. pneumoniae [3]; [6]): 3 min; Sterilization Time (K. pneumoniae [3]; [7]): 2 min; Sterilization Time (P. aeruginosa [4]; [5]): 0.5 min; Sterilization Time (P. aeruginosa [4]; [6]): 0.5 min; Sterilization Time (P. aeruginosa [4]; [7]): 0.5 min
7 | CCCCCC(=O)OCC(C)(C)N(Cl)Cl [IV h, 2-N,N-Dichloroamino-2-methyl-1-propyl hexanoate] | > 62.5 µg/mL | 62.5 µg/mL (≈ 244 µM) | > 62.5 µg/mL | > 62.5 µg/mL | > 62.5 µg/mL | 62.5 µg/mL (≈ 244 µM) | > 62.5 µg/mL | > 62.5 µg/mL | 
8 | CCCCCCCC(=O)OCC(C)(C)N(Cl)Cl [IV i, 2-N,N-Dichloroamino-2-methyl-1-propyloctanoate] | > 62.5 µg/mL | 62.5 µg/mL (≈ 220 µM) | 62.5 µg/mL (≈ 220 µM) | > 62.5 µg/mL | > 62.5 µg/mL | 62.5 µg/mL (≈ 220 µM) | > 62.5 µg/mL | > 62.5 µg/mL | 
9 | CC(C)(COC(=O)c1cccnc1)N(Cl)Cl [IV j, 2-N,N-Dichloroamino-2-methyl-1-propyl nicotinate] |  |  |  |  |  |  |  |  | Sterilization Time (B. bronchiseptica; [8]): 4 min; Sterilization Time (S. epidermidis; [9]): 3 min; Sterilization Time (K. pneumoniae [3]; [8]): 1 min; Sterilization Time (P. aeruginosa [4]; [8]): 2 min
10 | C[n+]1cccc(C(=O)OCC(C)(C)N(Cl)Cl)c1 [IV l, 2-N,N-Dichloroamino-2-methyl-1-propyl nicotinate methylfluorosulfonate] |  |  |  |  |  |  |  |  | Sterilization Time (B. bronchiseptica; [8]): 5 min; Sterilization Time (S. epidermidis; [9]): 3 min; Sterilization Time (K. pneumoniae [3]; [8]): 5 min; Sterilization Time (P. aeruginosa [4]; [8]): 3 min
